Experimental data reported in US20030228621A1, “Common ligand universal enzyme assay and compositions for use therein” (priority 2002, published 2003).

Key:
[1] = Stability of dehydrogenases and FITC-NADH by fluorescence polarization over time; type: physicochemical; details: 1.5 nM FITC-NADH with EACPR, GAPDH or DHPR
Protocol: The fluorescence polarization of solutions of 10 μM enoyl ACP reductase, 5.6 μM glyceraldehyde-3-phosphate dehydrogenase and 10 μM dihydrodipicolinate reductase with 1.5 nM FITC-NADH, was measured. The concentration of the dehydrogenase was such that the solution of dehydrogenase and FITC-NADH would give the polarization mP value of 70-80. The blank was a solution of protein in buffer. Fluorescence polarization measurements were taken for 2 hours at 5 minute intervals.

[2] = biological target: dihydrodipicolinate reductase (DHPR) (Escherichia coli, UniProt P04036); experiment: Fluorescence polarization binding of FITC-NADH titrated with dihydrodipicolinate reductase (FIG. 4); details: 25 nM FITC-NADH, 20 mM Potassium Phosphate, pH 7.4, or 20 mM HEPES, pH 7.8, fit of mP vs Log(DHPR)
dihydrodipicolinate reductase (DHPR), sequence (P04036 whole entry): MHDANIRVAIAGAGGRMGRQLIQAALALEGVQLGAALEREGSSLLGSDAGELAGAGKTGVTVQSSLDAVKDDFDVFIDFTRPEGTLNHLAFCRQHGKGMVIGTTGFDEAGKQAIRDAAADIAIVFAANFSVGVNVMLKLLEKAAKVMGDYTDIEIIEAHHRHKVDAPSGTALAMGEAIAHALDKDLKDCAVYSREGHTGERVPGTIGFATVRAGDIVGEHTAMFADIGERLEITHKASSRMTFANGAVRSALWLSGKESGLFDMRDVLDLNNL
Protocol: This example illustrates the determination of the concentration of FITC-NADH that would provide the best signal to noise ratio for fluorescence polarization assay. FITC-NADH was dissolved in 10 mM TAPS buffer with 5% NaHCO3, pH=8. The final concentration of FITC-NADH was 150 μM. In later experiments 150 μM FITC-NADH was diluted to the desired concentration in 20 mM Potassium Phosphate buffer, pH=7.4. Fluorescence polarization was monitored using a Beacon 2000 Variable Temperature Fluorescence Polarization System (PanVera Corporation, Madison, Wis.) and an LJL Analyst HT 96-384 (Molecular Devices Corporation, Sunnyvale, Calif.). The concentration of FITC-NADH as fluorescent tracer was selected by measuring fluorescence polarization of varying concentrations of FITC-NADH in 10 mM Potassium Phosphate buffer, pH=7.4. The concentration range was 0.15 nM—15 nM. For the best signal to noise ratio regarding both the horizontal and vertical intensities that contribute to the fluorescence polarization value, a concentration of 25 nM was chosen for FITC-NADH in the majority of experiments.
This example illustrates the binding characteristics of FITC-NADH to various dehydrogenases. […] An individual blank of protein in buffer was measured for each point. […] FITC-NADH was added to the test tubes and the fluorescence polarization measurement was taken. […]

SMILES: NC(=O)C1=CN(C2OC(COP(=O)(O)OP(=O)(O)OCC3OC(n4cnc5c(NCCNC(=S)Nc6ccc(-c7c8ccc(=O)cc-8oc8cc(O)ccc78)c(C(=O)O)c6)ncnc54)C(O)C3O)C(O)C2O)C=CC1 (centres unmarked) [FITC-NADH, fluorescein isothiocyano-N^6-(2-aminoethyl)-NADH]
- time stable in fluorescence polarization assay [1]: 100 min
- Kd [2]: 1400 ± 100 nM
